Laboratory results as given in US20080234223A1, “N4 MODIFICATIONS OF PYRIMIDINE ANALOGS AND USES THEREOF” (UNIVERSITY OF SOUTHERN CALIFORNIA, priority 2006, published 2008).

What was measured:
[1] = system: epigenetically silenced GFP reporter gene in NIH3T3 cells; assay: Epigenetic GFP reporter system, NIH3T3 cells with transient CES1 or CES2 transfection; assay type: cell-based; details: NIH3T3 GFP reporter clone
Description: It was discovered that NPEOC-DAC could inhibit DNA methylation in cells expressing CES1 but not cells expressing CES2, and that inhibition of CES by NDGA blocked the ability of NPEOC-DAC to inhibit DNA methylation. […] Transfection of CES2 had no effect on NPEOC-DAC treatment and activation of GFP. NPEOC-DAC activation is dependent on CES1 expression.

[2] = system: LINE-1 DNA methylation in Hep3B cells (liver); assay: Global DNA methylation, bisulfite-PCR pyrosequencing of LINE-1, Hep3B cells; assay type: cell-based; details: 10 μM, three days
Description: (§1) T24 cells (urinary bladder transitional cell carcinoma), MCF7 (breast adenocarcinoma), HepG2 cells (hepatocellular carcinoma), Hep3B (hepatocellular carcinoma), were obtained from American Type Culture Collection (Manassas, Va.). T24 were cultured in McCoy's 5A medium supplemented with 10% fetal bovine serum. Other cells were cultured in DMEM medium plus 10% fetal bovine serum. All cells were grown in a humidified 37° C. incubator containing 5% CO2.
(§2) Cells were seeded at 2×10^4 cells per well in a 12-well dish 24 hours prior to treatments. Cells were treated with 5-Aza-CdR (Sigma-Aldrich Chemical Company, St. Louis, Mo.), NPEOC-DAC at the indicated concentrations. 5-aza-2′-deoxyazacytidine was dissolved in distilled water and NPEOC-DAC was dissolved in dimethyl sulfoxide (DMSO). Untreated controls of the DMSO solvent alone were also included. Cells were treated at the concentrations indicated for each experiment. Cells were collected after the number of days indicated in individual experiments. […]
(§3) Bisulfite modification of genomic DNA has been described previously (28). […] Bisulfite treated DNA was stored at −20° C. until ready for use.
(§4) Bisulfite-converted DNA was used for pyrosequencing analysis as previously described (29). […] Raw data were analyzed with the allele quantification algorithm using the provided software. […]

[3] = system: ID4 DNA methylation in HepG2 cells; assay: ID4 gene methylation, bisulfite-PCR pyrosequencing, HepG2 cells; assay type: cell-based; details: 10 μM, 3 days, baseline 94.7%
Description: as §1, §2, §3, §4

HepG2 cells = assay: Cell toxicity during drug treatment of HepG2 cells; assay type: cell-based; details: for toxicity: 10 uM continual treatment, time course
Description: (§5) Cells were seeded at 2×10^4 cells per well in a 12-well dish 24 hours prior to treatments. Cells were treated with 5-Aza-CdR (Sigma-Aldrich Chemical Company, St. Louis, Mo.), NPEOC-DAC at the indicated concentrations. 5-aza-2′-deoxyazacytidine was dissolved in distilled water and NPEOC-DAC was dissolved in dimethyl sulfoxide (DMSO). Untreated controls of the DMSO solvent alone were also included. Cells were treated at the concentrations indicated for each experiment. Cells were collected after the number of days indicated in individual experiments. For subsequent methylation, genomic DNA was extracted using standard phenol/chloroform extraction methods, as described previously (27). Each experiment was done in triplicate and standard deviations are indicated by error bars.

[4] = system: LINE-1 DNA methylation in MCF7 cells (breast); assay: Global DNA methylation, bisulfite-PCR pyrosequencing of LINE-1, MCF7 cells; assay type: cell-based; details: MCF; 10 μM; three days
Description: as §1, §2, §3, §4

[5] = system: ID4 expression in HepG2 cells; assay: ID4 mRNA expression by RT-PCR in HepG2 cells; assay type: cell-based; details: 3 days of treatment, untreated cells no detectable ID4
Description: Genomic DNA was isolated by standard proteinase K digestion and phenol-chloroform extraction (26). Total RNA was collected and extracted from cultured cells with the RNeasy Protect minikit (Qiagen, Valencia, Calif.) according to the manufacturer's protocol.
as §5
Total RNA (5 micrograms) extracted from cultured cells was reverse transcribed with Moloney murine leukemia virus reverse transcriptase (Invitrogen, Carlsbad, Calif.) and random hexamers (NEB) in a total volume of 20 microliters. The reverse transcription was performed according to the manufacturer's recommended protocol. […]

[6] = system: ID4 DNA methylation in T24 cells; assay: ID4 gene methylation, bisulfite-PCR pyrosequencing, T24 cells; assay type: cell-based; details: 10 μM, 3 days, baseline 40.2%
Description: as §1, §2, §3, §4

[7] = system: LINE-1 DNA methylation in HepG2 cells (liver); assay: Global DNA methylation, bisulfite-PCR pyrosequencing of LINE-1, HepG2 cells; assay type: cell-based; details: for LINE-1 methylation level after treatment / LINE-1 methylation level, time course / decrease in global DNA methylation (LINE-1): HepG2; for LINE-1 methylation level after treatment: 3 days, untreated baseline 53.9%; for LINE-1 methylation level, time course: 10 μM continual treatment, baseline 53.9%; for decrease in global DNA methylation (LINE-1): three days
Description: as §1, §5
(§6) Bisulfite modification of genomic DNA has been described previously (28). In brief, 1.5 μg of DNA was denatured in 50 μl of 0.2 M NaOH for 10 min at 37° C. Then, 30 μl of freshly prepared 10 mM hydroquinone (Sigma) and 520 μl of 3 M sodium bisulfite (Sigma) at pH 5.0 were added and mixed. The samples were overlaid with mineral oil to prevent evaporation and incubated at 50° C. for 16 h. The bisulfite-treated DNA was isolated using Wizard DNA Clean-Up System (Promega). The DNA was eluted by 50 microliters of warm water and 5.5 microliters of 3 M NaOH were added for 5 min. The DNA was ethanol precipitated with glycogen as a carrier and resuspended in 20 microliters of water. Bisulfite treated DNA was stored at −20° C. until ready for use.
(§7) Bisulfite-converted DNA was used for pyrosequencing analysis as previously described (29). In brief, PCR product of each gene was used for individual sequencing reaction. Streptavidin-Sepharose beads (Amersham Biosciences, Uppsala, Sweden) and Vacuum Prep Tool (Biotage AB, Uppsala, Sweden) was used to purify the single-stranded biotinylated PCR product per the manufacturer's recommendation. The appropriate sequencing primer was annealed to the purified PCR product and used for a pyrosequencing reaction using the PSQ 96HS system (Biotage AB, Uppsala, Sweden). Raw data were analyzed with the allele quantification algorithm using the provided software. Pyrosequencing was done for LINE-1 elements and ID4 tumor suppressor gene.

[8] = system: ID4 DNA methylation in Hep3B cells; assay: ID4 gene methylation, bisulfite-PCR pyrosequencing, Hep3B cells; assay type: cell-based; details: 10 μM, 3 days, baseline 95.4%
Description: as §1, §2, §3, §4

[9] = system: LINE-1 DNA methylation in T24 cells (bladder); assay: Global DNA methylation, bisulfite-PCR pyrosequencing of LINE-1, T24 cells; assay type: cell-based; details: for LINE-1 methylation level after treatment: baseline 47.3%; for decrease in global DNA methylation (LINE-1): three days
Description: as §1, §5, §6, §7

[10] = system: ID4 DNA methylation in MCF7 cells; assay: ID4 gene methylation, bisulfite-PCR pyrosequencing, MCF7 cells; assay type: cell-based; details: MCF; 10 μM; 3 days; baseline 39.0%
Description: as §1, §2, §3, §4

[11] = system: LINE-1 DNA methylation in HepG2 cells (carboxylesterase dependence); assay: Inhibition of carboxylesterase by NDGA: LINE-1 methylation in HepG2 cells; assay type: cell-based
Description: as §7
For dose effects of nordihydroguaiaretic acid (NDGA) on CES inhibition, HepG2 cells were grown in 6-well plates. […] Cells were harvested on day 4 by Tripsin-EDTA.

Solubility in water = assay type: physicochemical; details: consequently dissolved in DMSO
[12] = rapid deamination by plasma cytidine deaminase; cited from earlier work

Row | SMILES | reactivation of GFP ([1]; no CES transfection) | decrease in global DNA methylation (LINE-1) [2] | decrease in DNA methylation of ID4 [3] | toxicity (HepG2 cells) | decrease in global DNA methylation (LINE-1) [4] | ID4 mRNA expression (RT-PCR) [5] | decrease in DNA methylation of ID4 [6] | LINE-1 methylation level after treatment ([7]; 0.5 μM) | LINE-1 methylation level, time course ([7]; day 1) | LINE-1 methylation level, time course ([7]; day 7) | decrease in global DNA methylation (LINE-1) ([7]; 10 μM) | decrease in DNA methylation of ID4 [8] | decrease in global DNA methylation (LINE-1) ([9]; 10 μM) | decrease in DNA methylation of ID4 [10] | other results
1 | Nc1ncn([C@H]2C[C@H](O)[C@@H](CO)O2)c(=O)n1 [DAC, 5-aza-2′-deoxycytidine, reference compound] | could be reactivated | 12.3% | 2.6% | significant toxicity | 11.0% | clear expression of ID4 could be detected | 38.1% | 46.0% | 36.5% | returned to baseline | 5.6% | 1.1% | 57.1% | 19.7% | cell toxicity (HepG2 cells; higher concentrations (5 μM), 3 days): significant cell toxicity; LINE-1 methylation level after treatment ([7]; 1 μM): 47.0%; LINE-1 methylation level after treatment ([7]; 5 μM): 56.9%; LINE-1 methylation level after treatment ([9]; 0.5 uM, 3 days): 26.8%; LINE-1 methylation level after treatment ([9]; 1 uM, 3 days): 21.0%; LINE-1 methylation level after treatment ([9]; 5 uM, 3 days): 35.7%
2 | CC(Cc1ccc(O)c(O)c1)C(C)Cc1ccc(O)c(O)c1 (centres unmarked) [NDGA, nordihydroguaiaretic acid, reference compound] | – | – | – | – | – | – | – | – | – | – | – | – | – | – | effect on DNA methylation of HepG2 cells ([11]; 100 μM, alone): no effect
3 | O=C(Nc1ncn([C@H]2C[C@H](O)[C@@H](CO)O2)c(=O)n1)OCCc1ccc([N+](=O)[O-])cc1 [NPEOC-DAC, 2′-deoxy-N4-[2-(4-nitrophenyl)ethoxycarbonyl]-5-azacytidine] | without reactivation of GFP | 17.4% | 24.7% | less toxicity than observed with DAC | 5.1% | increased expression of ID4 | 8.2% | no detectable effect | did not begin to decrease LINE-1 methylation until day 3 | 38.9% | 22.1% | 26.2% | 0.9% | 10.0% | solubility in water (Solubility in water): very low solubility in water; reactivation of GFP ([1]; transfection of CES2): no effect; reactivation of GFP ([1]; transient transfection of human CES1 gene): reactivation of GFP; delay in the effects compared to DAC [7]: 3 days; fold less efficient at inhibiting DNA methylation compared to DAC [7]: 23 fold; LINE-1 methylation level, time course ([7]; day 3): 43.7%; LINE-1 methylation level, time course ([7]; day 14): 30.9%; LINE-1 methylation level after treatment ([7]; 10 μM, concentration series): 42.0%; LINE-1 methylation level after treatment ([7]; 100 μM): 28.7%; LINE-1 methylation decreased by ([11]; 10 μM NPEOC-DAC alone): 49.7%; LINE-1 methylation level after treatment ([11]; 10 μM NPEOC-DAC alone): 24.5%; LINE-1 methylation change in combination with NDGA ([11]; in combination with NDGA (100 μM)): did not decrease; decrease in DNA methylation (LINE-1), time course ([9]; 10 μM, prolonged treatment (to day 14)): did not show any decrease; change in DNA methylation (LINE-1) ([9]; 3 days, up to the highest concentrations): no change in DNA methylation
4 | Nc1ncn([C@@H]2O[C@H](CO)[C@@H](O)[C@H]2O)c(=O)n1 [5-azacytidine] | – | – | – | – | – | – | – | – | – | – | – | – | – | – | in vivo plasma half-life [12]: 41 min
